From US10112943B2, “Substituted imidazoles as gamma secretase modulators” (Janssen Pharmaceutica NV, priority 2012, dated 2018)

How the values were obtained:
γ-secretase [1] = target: T1, γ-secretase (Homo sapiens, UniProt P49768); assay: Screening for γ-secretase-modulating activity: Aβ42 in cell supernatant (Alphalisa sandwich immuno-assay); assay type: cell-based; conditions: SKNBE2 human neuroblastoma cells carrying hAPP 695-wild type, overnight incubation
T1 construct: endogenous in cells; host or cells: SKNBE2 human neuroblastoma cells carrying hAPP 695 wild type
Experimental: (§1) A) Screening of the Compounds of the Invention for γ-Secretase-Modulating Activity
(§2) Screening was carried out using SKNBE2 human neuroblastoma cells carrying the hAPP 695-wild type, grown in Dulbecco's Modified Eagle's Medium/Nutrient mixture F-12 (DMEM/NUT-mix F-12) (HAM) provided by Invitrogen (cat no. 10371-029) containing 5% Serum/Fe supplemented with 1% non-essential amino acids, 1-glutamine 2 mM, Hepes 15 mM, penicillin 50 U/ml (units/ml) and streptomycin 50 μg/ml. Cells were grown to near confluency.
(§3) The screening was performed using a modification of the assay as described in Citron et al (1997) Nature Medicine 3: 67. Briefly, cells were plated in a 384-well plate at 10^4 cells/well in Ultraculture (Lonza, BE12-725F) supplemented with 1% glutamine (Invitrogen, 25030-024), 1% non-essential amino acid (NEAA), penicillin 50 U/ml en streptomycin 50 μg/ml in the presence of test compound at different test concentrations. The cell/compound mixture was incubated overnight at 37° C., 5% CO2. The next day the media were assayed by two sandwich immuno-assays, for Aβ42 and Aβtotal.
(§4) Aβtotal and Aβ42 concentrations were quantified in the cell supernatant using the Aphalisa technology (Perkin Elmer). Alphalisa is a sandwich assay using biotinylated antibody attached to streptavidin coated donorbeads and antibody conjugated to acceptor beads. In the presence of antigen, the beads come into close proximity. The excitation of the donor beads provokes the release of singlet oxygen molecules that trigger a cascade of energy transfer in the acceptor beads, resulting in light emission. To quantify the amount of Aβ42 in the cell supernatant, monoclonal antibody specific to the C-terminus of Aβ42 (JRF/cAβ42/26) was coupled to the receptor beads and biotinylated antibody specific to the N-terminus of Aβ (JRF/AβN/25) was used to react with the donor beads. To quantify the amount of Aβtotal in the cell supernatant, monoclonal antibody specific to the N-terminus of Aβ (JRF/AβN/25) was coupled to the receptor beads and biotinylated antibody specific to the mid region of Aβ (biotinylated 4G8) was used to react with the donor beads.
To obtain the values reported in Table 3, the data are calculated as percentage of the maximum amount of amyloid Beta 42 measured in the absence of the test compound.
(§5) The sigmoidal dose response curves were analyzed using non-linear regression analysis with percentage of the control plotted against the log concentration of the compound. A 4-parameter equation was used to determine the IC50.

γ-secretase [2] = target: T1, γ-secretase; assay: Screening for γ-secretase-modulating activity: Aβtotal in cell supernatant (Alphalisa sandwich immuno-assay); assay type: cell-based; conditions: SKNBE2 human neuroblastoma cells carrying hAPP 695-wild type, overnight incubation
Experimental: as §1, §2, §3, §4, §5

Aβ42 = assay: In vivo efficacy: brain levels of soluble Aβ42 in non-transgenic rodents (MSD electrochemiluminescence); design: species or system mouse; conditions: dose 30 mg/kg oral dosing, soluble fraction, untreated animals (Ctrl) set at 100, typical protocol 4 h after dose
Excerpt: (§6) To determine whether acute administration of an Aβ42 lowering agent would reduce Aβ42 levels in vivo, non-transgenic rodents, e.g. mice or rats were used. Animals treated with the Aβ42 lowering agent were examined and compared to those untreated or treated with vehicle and brain levels of soluble Aβ42, Aβ40, Aβ38, and Aβ37 were quantitated by Meso Scale Discovery's (MSD) electrochemiluminescence detection technology. Treatment periods varied from hours (h) to days and were adjusted based on the results of the Aβ42 lowering once a time course of onset of effect could be established.
(§7) A typical protocol for measuring Aβ42 lowering in vivo is shown but it is only one of many variations that could be used to optimize the levels of detectable Aβ. […] After 4 h, the animals were sacrificed and Aβ42 levels were analysed.
(§8) Blood was collected by decapitation and exsanguinations in EDTA-treated collection tubes. […] The left hemisphere was stored at −18° C. for quantitative analysis of test compound levels. […]
(§9) Mouse brains from non-transgenic animals were resuspended in 8 volumes of 0.4% DEA (diethylamine)/50 mM NaCl containing protease inhibitors (Roche-11873580001 or 04693159001) per gram of tissue, e.g. for 0.158 g brain, add 1.264 ml of 0.4% DEA. […] Nine parts of supernatant were neutralized with 1 part 0.5 M Tris-HCl pH 6.8 and used to quantify Aβ. […]

Aβ40 = assay: In vivo efficacy: brain levels of soluble Aβ40 in non-transgenic rodents (MSD electrochemiluminescence); design: species or system mouse; conditions: dose 30 mg/kg oral dosing, soluble fraction, untreated animals (Ctrl) set at 100, typical protocol 4 h after dose
Excerpt: as §6, §7, §8, §9

Compound: Cc1cn(-c2ccc3n(c2=O)C[C@@H]2CC[C@@H](Cc4cc(C(F)(F)F)cc(C(F)(F)F)c4)N2C3=O)cn1 (single isomer, unassigned) [Compound 4, 3-[[3,5-bis(trifluoromethyl)phenyl]methyl]-2,3,11,11a-tetrahydro-8-(4-methyl-1H-imidazol-1-yl)-1H-pyrido[1,2-a]pyrrolo[1,2-d]pyrazine-5,9-dione ((3S, 11aS) or (3R, 11aR))]
- IC50 (γ-secretase [1]): 50 nM
- IC50 (γ-secretase [2]): > 10000 nM
- Aβ42 (% vs Ctrl) _Mean (Aβ42): 47 % vs Ctrl
- Aβ40 (% vs Ctrl) _Mean (Aβ40): 69 % vs Ctrl
- melting point: 254.8 °C
